Assay [1] has as its target GDP-bound KRAS protein (aa 1-169), containing both G12C and C118A amino acid substitutions (Homo sapiens, UniProt P01116, C118A/G12C). Description: Coupled Nucleotide Exchange Assay (SOS-mediated nucleotide exchange, AlphaScreen). Conditions: compound pre-incubation either 5 min or 2 hours (not stated per compound); SOS and GTP added, cRAF AlphaScreen read-out. Format: biochemical. The protocol: (§1) For compounds in Table 6, the following assay conditions were employed:
Coupled Nucleotide Exchange Assay: Purified GDP-bound KRAS protein (aa 1-169), containing both G12C and C118A amino acid substitutions and an N-terminal His-tag, was pre-incubated in assay buffer (25 mM HEPES pH 7.4, 10 mM MgCl2, and 0.01% Triton X-100) with a compound dose-response titration for either 5 min or 2 hours (see Table 15). Following compound pre-incubation, purified SOS protein (aa 564-1049) and GTP (Roche 10106399001) were added to the assay wells and incubated for an additional 30 min (for 5 min compound pre-incubation) or 1 hour (for 2 hour compound pre-incubation). To determine the extent of inhibition of SOS-mediated nucleotide exchange, purified GST-tagged cRAF (aa 1-149), nickel chelate AlphaLISA acceptor beads (PerkinElmer AL108R), and AlphaScreen glutathione donor beads (PerkinElmer 6765302) were added to the assay wells and incubated for 10 minutes. The assay plates were then read on a PerkinElmer EnVision Multilabel Reader, using AlphaScreen® technology, and data were analyzed using a 4-parameter logistic model to calculate IC50 values.

Assay [2] deals with Phosphorylation of ERK1/2 in MIA PaCa-2 cells. As to the kind of experiment: Phospho-ERK1/2 MSD Assay. The assay is classed as cell-based. Particulars: Homo sapiens, MIA PaCa-2, MIA PaCa-2 cells, compound 2 or 4 hours, then 10 ng/mL EGF for 10 min; read-out: p-ERK IC50 (MIA-PaCa-2) (converted). The method, then: as §1
Phospho-ERK1/2 MSD Assay: MIA PaCa-2 (ATCC® CRL-1420™) cells were cultured in RPMI 1640 Medium (ThermoFisher Scientific 11875093) containing 10% fetal bovine serum (ThermoFisher Scientific 16000044) and 1× penicillin-streptomycin-glutamine (ThermoFisher Scientific 10378016). Sixteen hours prior to compound treatment, MIA PaCa-2 cells were seeded in 96-well cell culture plates at a density of 25,000 cells/well and incubated at 37° C., 5% CO2. A compound dose-response titration was diluted in growth media, added to appropriate wells of a cell culture plate, and then incubated at 37° C., 5% CO2 for 2 or 4 hours. Following compound treatment, cells were stimulated with 10 ng/mL EGF (Roche 11376454001) for 10 min, washed with ice-cold Dulbecco's phosphate-buffered saline, no Ca^2+ or Mg^2+ (ThermoFisher Scientific 14190144), and then lysed in RIPA buffer (50 mM Tris-HCl pH 7.5, 1% Igepal, 0.5% sodium deoxycholate, 150 mM NaCl, and 0.5% sodium dodecyl sulfate) containing protease inhibitors (Roche 4693132001) and phosphatase inhibitors (Roche 4906837001). Phosphorylation of ERK1/2 in compound-treated lysates was assayed using Phospho-ERK1/2 Whole Cell Lysate kits (Meso Scale Discovery K151DWD) according to the manufacturer's protocol. Assay plates were read on a Meso Scale Discovery Sector imager 6000, and data were analyzed using a 4-parameter logistic model to calculate IC50 values.

The record followed here is US10988485B2 (Amgen Inc., priority 2018, dated 2021).

Chain of GDP-bound KRAS protein (aa 1-169), containing both G12C and C118A amino acid substitutions (P01116 1-169 isoform P01116-2 G12C/C118A): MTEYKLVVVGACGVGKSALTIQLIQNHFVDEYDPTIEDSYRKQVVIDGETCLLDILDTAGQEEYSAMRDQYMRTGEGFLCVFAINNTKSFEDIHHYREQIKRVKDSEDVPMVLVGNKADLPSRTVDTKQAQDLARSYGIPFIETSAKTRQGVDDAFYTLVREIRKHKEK

The term IC50 denotes the concentration that inhibits the measured activity by half. Regarding `C=CC(=O)N1CCN(C2=NS(=O)(=O)N(c3ccccc3C(C)C)c3nc(-c4c(O)cccc4F)c(Cl)cc32)[C@@H](C)C1` [Example 1-2, 1-((3S)-4-(6-chloro-7-(2-fluoro-6-hydroxyphenyl)-2,2-dioxido-1-(2-(2-propanyl)phenyl)-1H-pyrido[2,3-c][1,2,6]thiadiazin-4-yl)-3-methyl-1-piperazinyl)-2-propen-1-one], the values for the 50% inhibitory concentration (IC50) in assay [1] and in assay [2] were 150 nM and 270 nM, respectively.
For the molecule `C=CC(=O)N1C[C@H](C)N(C2=NS(=O)(=O)N(c3c(C)cnn3C(C)C)c3nc(-c4ccccc4F)c(Cl)cc32)C[C@H]1C` [Example 1-11, 1-((2R,5S)-4-(6-chloro-7-(2-fluorophenyl)-1-(4-methyl-1-(2-propanyl)-1H-pyrazol-5-yl)-2,2-dioxido-1H-pyrido[2,3-c][1,2,6]thiadiazin-4-yl)-2,5-dimethyl-1-piperazinyl)-2-propen-1-one], the IC50 in assay [1] and in assay [2] was 200 nM in each case.
